Laboratory results reported in patent US20230053540A1, “TREATMENT OF LIVER INJURY” (Massachusetts Institute of Technology, priority 2019, published 2023).

Tested on: hepatocytes
Assay: Seq-Well scRNA-Seq of hepatocytes after APAP overdose (signature scores, DEG vs untreated)
Type: in vivo, mouse
Conditions: cluster A6 (APAP 6 hr)

SMILES: CC(=O)Nc1ccc(O)cc1 [APAP, acetaminophen]
- Iigp1 pct.1: 0.78
- Il1b avg_logFC: 0.7365
- Il1b pct.1: 0.236
- Il1r1 avg_logFC: 0.845
- Il1r1 pct.1: 0.683
- Insig2 avg_logFC: 0.6834
- Insig2 pct.1: 0.854
- Iqgap1 avg_logFC: 0.4345
- Iqgap1 pct.1: 0.162
- Itgb2 avg_logFC: 0.2628
- Itgb2 pct.1: 0.105
- Itih2 avg_logFC: 0.3109
- Itih2 pct.1: 0.893
- Jak1 avg_logFC: 0.4696
- Jak1 pct.1: 0.554
- Jmjd1c avg_logFC: 0.5262
- Jmjd1c pct.1: 0.47
- Klf6 avg_logFC: 0.6123
- Klf6 pct.1: 0.382
- Krt8 avg_logFC: 1.204
- Krt8 pct.1: 0.826
- Krt18 avg_logFC: 1.118
- Krt18 pct.1: 0.864
- Laptm5 avg_logFC: 0.3169
- Laptm5 pct.1: 0.124
- Lars2 avg_logFC: 0.5887
- Lars2 pct.1: 1
- Lgmn avg_logFC: 0.4368
- Lgmn pct.1: 0.246
- Lmo4 avg_logFC: 0.2923
- Lmo4 pct.1: 0.308
- Lpin2 avg_logFC: 0.5227
- Lpin2 pct.1: 0.745
- Lrrc58 avg_logFC: 0.9243
- Lrrc58 pct.1: 0.711
- Lyst avg_logFC: 0.3767
- Lyst pct.1: 0.31
- Lyz2 avg_logFC: 0.6523
- Lyz2 pct.1: 0.234
- Maff avg_logFC: 0.3314
- Maff pct.1: 0.224
- Malat1 avg_logFC: 1.108
- Malat1 pct.1: 0.871
- Map2k3 avg_logFC: 0.3952
- Map2k3 pct.1: 0.427
- Mat1a avg_logFC: 0.3317
- Mat1a pct.1: 0.986
- Mat2a avg_logFC: 0.4693
- Mat2a pct.1: 0.487
- Mdn1 avg_logFC: 0.2931
- Mdn1 pct.1: 0.251
- Mfsd2a avg_logFC: 0.4232
- Mfsd2a pct.1: 0.465
- Mmp8 avg_logFC: 0.3585
- Mmp8 pct.1: 0.136
- Mmp14 avg_logFC: 0.2594
- Mmp14 pct.1: 0.253
- Mrap avg_logFC: 0.8261
- Mrap pct.1: 0.606
- Mrc1 avg_logFC: 0.3063
- Mrc1 pct.1: 0.131
- Msn avg_logFC: 0.251
- Msn pct.1: 0.105
- Mt1 avg_logFC: 0.9315
- Mt1 pct.1: 0.981
- Mt2 avg_logFC: 0.6647
- Mt2 pct.1: 0.938
- Mthfd2 avg_logFC: 0.26
- Mthfd2 pct.1: 0.205
- Myh9 avg_logFC: 0.8661
- Myh9 pct.1: 0.718
- Myl12a avg_logFC: 0.3937
- Myl12a pct.1: 0.461
- Myo1e avg_logFC: 0.4916
- Myo1e pct.1: 0.475
- Ncl avg_logFC: 0.4292
- Ncl pct.1: 0.69
- Neat1 avg_logFC: 0.6234
- Neat1 pct.1: 0.31
- Nid1 avg_logFC: 0.3315
- Nid1 pct.1: 0.229
- Nolc1 avg_logFC: 0.4084
- Nolc1 pct.1: 0.363
- Nop56 avg_logFC: 0.2507
- Nop56 pct.1: 0.282
- Nop58 avg_logFC: 0.5859
- Nop58 pct.1: 0.492
- Phc2 avg_logFC: 0.3092
- Phc2 pct.1: 0.284
- Picalm avg_logFC: 0.6425
- Picalm pct.1: 0.647
- Pigr avg_logFC: 0.2627
- Pigr pct.1: 0.947
- Pla2g7 avg_logFC: 0.2737
- Pla2g7 pct.1: 0.119
- Plek avg_logFC: 0.3031
- Plek pct.1: 0.11
- Plin2 avg_logFC: 1.276
- Plin2 pct.1: 0.943
- Plscr1 avg_logFC: 0.4343
- Plscr1 pct.1: 0.329
- Ppan avg_logFC: 0.2655
- Ppan pct.1: 0.255
- Ppl avg_logFC: 0.8287
- Ppl pct.1: 0.47
- Psat1 avg_logFC: 0.3001
- Psat1 pct.1: 0.229
- Ptprc avg_logFC: 0.4072
- Ptprc pct.1: 0.153
- Rad54l2 avg_logFC: 0.3366
- Rad54l2 pct.1: 0.325
- Ranbp2 avg_logFC: 0.4808
- Ranbp2 pct.1: 0.566
- Rcan1 avg_logFC: 0.5727
- Rcan1 pct.1: 0.425
- Rell1 avg_logFC: 0.577
- Rell1 pct.1: 0.375
- Retnlg avg_logFC: 0.3746
- Retnlg pct.1: 0.129
- Retsat avg_logFC: 0.4801
- Retsat pct.1: 0.845
- Rgs2 avg_logFC: 0.3802
- Rgs2 pct.1: 0.138
- Rnf144a avg_logFC: 0.3119
- Rnf144a pct.1: 0.177
- Rock2 avg_logFC: 0.5525
- Rock2 pct.1: 0.425
- Rora avg_logFC: 0.5514
- Rora pct.1: 0.549
- S100a8 avg_logFC: 1.116
- S100a8 pct.1: 0.353
- S100a9 avg_logFC: 1.336
- S100a9 pct.1: 0.399
- Sat1 avg_logFC: 0.6622
- Sat1 pct.1: 0.47
- Sdad1 avg_logFC: 0.2844
- Sdad1 pct.1: 0.289
- Sdc3 avg_logFC: 0.318
- Sdc3 pct.1: 0.103
- Sdc4 avg_logFC: 0.4415
- Sdc4 pct.1: 0.909
- Serpina3m avg_logFC: 0.6067
- Serpina3m pct.1: 0.85
- Slc16a6 avg_logFC: 0.864
- Slc16a6 pct.1: 0.47
- Slc39a14 avg_logFC: 0.6721
- Slc39a14 pct.1: 0.678
- Son avg_logFC: 0.4342
- Son pct.1: 0.601
- Spred1 avg_logFC: 0.3351
- Spred1 pct.1: 0.308
- Sqstm1 avg_logFC: 0.6817
- Sqstm1 pct.1: 0.859
- Srgn avg_logFC: 0.926
- Srgn pct.1: 0.284
- Srxn1 avg_logFC: 1.874
- Srxn1 pct.1: 0.821
- St3gal1 avg_logFC: 0.4344
- St3gal1 pct.1: 0.473
- Stat3 avg_logFC: 0.4846
- Stat3 pct.1: 0.604
- Stk17b avg_logFC: 0.2825
- Stk17b pct.1: 0.126
- Stk40 avg_logFC: 0.4875
- Stk40 pct.1: 0.382
- Tars avg_logFC: 0.4768
- Tars pct.1: 0.666
- Tatdn2 avg_logFC: 0.309
- Tatdn2 pct.1: 0.334
- Tbc1d15 avg_logFC: 0.42
- Tbc1d15 pct.1: 0.461
- Tcerg1 avg_logFC: 0.3358
- Tcerg1 pct.1: 0.305
- Tiparp avg_logFC: 0.427
- Tiparp pct.1: 0.346
- Tjp2 avg_logFC: 0.403
- Tjp2 pct.1: 0.332
- Tmem87b avg_logFC: 0.3486
- Tmem87b pct.1: 0.351
- Tmsb4x avg_logFC: 0.7051
- Tmsb4x pct.1: 0.332
- Tnfrsf1a avg_logFC: 0.4533
- Tnfrsf1a pct.1: 0.508
- Tnfrsf12a avg_logFC: 1.081
- Tnfrsf12a pct.1: 0.623
- Tra2a avg_logFC: 0.6917
- Tra2a pct.1: 0.337
- Trp53inp1 avg_logFC: 0.8389
- Trp53inp1 pct.1: 0.637
- Tsc22d2 avg_logFC: 0.3382
- Tsc22d2 pct.1: 0.353
- Tsku avg_logFC: 0.3206
- Tsku pct.1: 0.327
- Tsr1 avg_logFC: 0.314
- Tsr1 pct.1: 0.341
- Tubb2a avg_logFC: 0.7838
- Tubb2a pct.1: 0.618
- Tubb6 avg_logFC: 0.533
- Tubb6 pct.1: 0.368
- Txnrd1 pct.1: 0.838
- Tyrobp avg_logFC: 0.4431
- Tyrobp pct.1: 0.189
